# Experimental data from patent US10201535B2 (priority 2011, dated 2019).
# Columns and labels:
# [1] = system: LL-37-induced skin inflammation; experiment: LL-37-Induced Skin Inflammation Mouse Model (ear swelling); type: in vivo; conditions: at 6 and 9 hrs after topical treatment, gel on ears of BALB/c mice
# Description: One hour following application, the left ear was intradermally injected with LL-37 peptide and the right ear was injected with phosphate-buffered saline (PBS). Ear thickness measurements were made with a digital caliper (Mitutoyo) at various timepoints up to 8 hrs post-injection with LL-37. Ear swelling is an indicator of inflammation.
# The data are the mean values from 9-10 mice per group.
# [2] = system: UVB-exposed skin of SKH1 hairless mice; experiment: Mouse Model of UV-Induced Erythema (histology of back skin); type: in vivo; conditions: for mice with overall healing good to excellent / EPIDERMIS Hyperplasia / DERMIS Congestion / DERMIS Edema / DERMIS Infiltrates / EPIDERMIS Disorganization / EPIDERMIS Necrosis / EPIDERMIS Separation: skin 48 hours after UVB; for EPIDERMIS Hyperplasia / DERMIS Congestion / DERMIS Edema / DERMIS Infiltrates / EPIDERMIS Disorganization / EPIDERMIS Necrosis / EPIDERMIS Separation: mean grade
# Description: The right backs of male SKH1 hairless mice were exposed to 120 mJ/cm^2 UVB radiation, while the left sides were shielded. […] An additional group with vehicle applied topically at 20 minutes post UVB exposure served as a control. Samples of skin from the backs from both left and right sides were collected 48 hours following UVB exposure and examined histologically.
# Each endpoint is graded on a scale of 0-4 (0=no findings, 1=minimal, 2=mild, 3=moderate, 4=marked). Data are expressed as the mean of values from 6 mice per group.
# [3] = system: 37° C. induced vessel dilation (cutaneous blood flow) in rat paws; experiment: Rat Blood Flow Assay (laser Doppler flowmetry, hind foot pad); type: in vivo; conditions: 4 days of topical dosing (once per day), 0.1%, hairless CD rats
# Description: A laser Doppler microvascular perfusion monitor (laser Doppler flowmetry technique, LDF) was used to monitor red blood cell perfusion in the microvasculature of the hind foot pad. The laser doppler flowmetry (LDF) is an OxyFlo Microvascular Perfusion Monitor, from Oxford Optronix Ltd. UK.
# Briefly, 15 μL of test articles was applied topically once, or repeatedly (once daily for 4 consecutive days) to one hind foot pad of anaesthetized hairless CD rats and 15 μL of vehicle was applied to the other footpad.
# At various timepoints up to 8 hrs following the last test article administration, dynamic blood flow changes were measured and recorded every 15 seconds for 4 minutes per temperature interval for 5 intervals (22° C.→37° C.→4° C.→37° C.→22° C.).
# Rats were placed on a 37° C. heat pad to increase their temperature and on an ice pad to decrease their temperature to 4° C. The levels of blood flow in the two paws were compared.
# The % blood flow inhibition is calculated as the % difference in the AUC of peak 1 (first 8 min heating and cooling interval) of the laser doppler recordings between the drug-treated and vehicle-treated paws. Data are the mean % inhibition values from 8-10 rats per group.
# [4] = Description: To assure the integrity of each skin section, its permeability to tritiated water was determined before application of the test products.
# [5] = system: UVB-induced erythema, cutaneous vessel dilation and tactile hypersensitivity in SKH1 hairless mice; experiment: Ultraviolet B-Induced Mouse Sunburn Model; type: in vivo
# Excerpt: SKH1 hairless mice, lying on their stomachs with their left sides covered, were exposed to UVB at an intensity of 120 mJ/cm^2 for 91 sec. […] At various timepoints up to 48 hrs post UVB-irradiation, the following assessments were made:
# 1. Vasculature area in the exposed and unexposed ears by image analysis of digital photos using ImagePro Premier (Media Cybernetics) software. Images are converted to gray-scale, expanded and thresholding, based on each ear's baseline pixel values, is applied to the images. Thresholding differentiates the desired “object” features (i.e. vasculature network) from the background (i.e. skin tissue). The “object” pixels are then quantified and reported as the vasculature area.
# 2. Erythema on the exposed and unexposed back using a Chromameter (Konica Minolta).
# 3. Tactile hypersensitivity assessment using a paint brush test. The hypersensitivity is assessed by light stroking of the flank of the mice with a small paint brush every 5 min over 35 min. The behavioral response is scored as follows: 0, no response; 1, mild squeaking with attempts to move away from the brush; 2, vigorous squeaking evoked by the brush, biting at the brush and strong efforts to escape. The scores at the eight timepoints are summed so the maximum hypersensitivity score for each mouse can be 16. The exposed (right) and unexposed (left) flanks were scored independently.
# [6] = 0.1% topical, 20 minutes following UVB exposure
# [7] = scale 0-4, 0.1% topical 20 min after UVB
# [8] = scale 0-4, 0.1% topical 4 hr after UVB
# [9] = scale 0-4, 0.1% topical 8 hr after UVB
smiles,measurement,setting,value
"c1cnc2c(c1)CC[C@H](Cc1c[nH]cn1)C2 [(S)-(+)-7-(1H-Imidazol-4-ylmethyl)-5,6,7,8-tetrahydro-quinoline]",inhibition of LL-37-induced skin inflammation (ear swelling),[1],statistically significant inhibition
same,"edema, mixed inflammatory cell infiltrates and vascular congestion of the underlying dermis",[2]; [6],significantly reduced
same,outcome of healing of UVB-exposed back skin,[2]; [6],significantly improved the outcome of healing
same,mice with overall healing good to excellent,"[2]; 0.1% topical, treated at 20 minutes post UVB exposure",75%
same,mice with overall healing good to excellent,"[2]; 0.1% topical, treated at 4 hours post UVB exposure",50%
same,mice with overall healing good to excellent,"[2]; 0.1% topical, treated at 8 hours post UVB exposure",60%
same,mice with epidermal failure (moderate to marked separation and necrosis),"[2]; 0.1% topical, treated up to 8 hours following UVB exposure (all treated mice)",8%
same,EPIDERMIS Hyperplasia,"[2]; scale 0-4 (0=no findings, 4=marked), 0.1% topical 20 min after UVB",3.0
same,DERMIS Congestion,[2]; [7],1.0
same,DERMIS Edema,[2]; [7],0.5
same,DERMIS Infiltrates,[2]; [7],0.8
same,EPIDERMIS Disorganization,[2]; [7],2.0
same,EPIDERMIS Necrosis,[2]; [7],0.5
same,EPIDERMIS Separation,[2]; [7],0.3
same,DERMIS Congestion,[2]; [8],1.8
same,DERMIS Edema,[2]; [8],2.0
same,DERMIS Infiltrates,[2]; [8],2.0
same,EPIDERMIS Disorganization,[2]; [8],3.0
same,EPIDERMIS Hyperplasia,[2]; [8],2.3
same,EPIDERMIS Necrosis,[2]; [8],1.3
same,EPIDERMIS Separation,[2]; [8],1.3
same,DERMIS Congestion,[2]; [9],1.0
same,DERMIS Edema,[2]; [9],1.5
same,DERMIS Infiltrates,[2]; [9],0.8
same,EPIDERMIS Disorganization,[2]; [9],2.0
same,EPIDERMIS Hyperplasia,[2]; [9],3.3
same,EPIDERMIS Necrosis,[2]; [9],1.0
same,EPIDERMIS Separation,[2]; [9],1.3
same,duration of statistically significant inhibition of 37° C. induced vessel dilation,[3],at least 6 hrs
same,penetration into and through skin,[4],does penetrate into and through ex vivo human trunk skin
same,distribution in skin layers (mass recovered),"[4]; 48 hour dose exposure, 0.58% (w/w) dose, FIG. 3",higher concentration in the epidermis
same,rate of percutaneous absorption (flux into receptor solution),[4]; human,increased rate of flux at the 18 and 36 hr timepoints
same,duration of statistically significant reduction of erythema to nearly baseline levels (chromameter),[5]; topical dosing to the back 30 min following UVB exposure,at least 48 hrs
same,tactile hypersensitivity (paint brush test),"[5]; topical dosing to the back 30 min following UVB exposure, assessed 4 hrs following UVB irradiation, both UV-exposed and control sides",statistically significant reduction of tactile hypersensitivity
same,duration of statistically significant cutaneous vasoconstriction (reduction of cutaneous vasculature area) to nearly baseline levels,[5]; topical dosing to the ear 30 min following UVB exposure,at least 48 hrs
